From publication PMC8876616, “Drug Design, Synthesis and Biological Evaluation of Heterocyclic Molecules as Anti-Inflammatory Agents” (Molecules, 2022) come the findings set out here.

One data set deals with T1, ovine COX-1 (Ovis aries, UniProt P05979).
T1 construct: purchased Cayman Chemicals, Ann Arbor, MI, USA
T1 sequence (P05979 25-600): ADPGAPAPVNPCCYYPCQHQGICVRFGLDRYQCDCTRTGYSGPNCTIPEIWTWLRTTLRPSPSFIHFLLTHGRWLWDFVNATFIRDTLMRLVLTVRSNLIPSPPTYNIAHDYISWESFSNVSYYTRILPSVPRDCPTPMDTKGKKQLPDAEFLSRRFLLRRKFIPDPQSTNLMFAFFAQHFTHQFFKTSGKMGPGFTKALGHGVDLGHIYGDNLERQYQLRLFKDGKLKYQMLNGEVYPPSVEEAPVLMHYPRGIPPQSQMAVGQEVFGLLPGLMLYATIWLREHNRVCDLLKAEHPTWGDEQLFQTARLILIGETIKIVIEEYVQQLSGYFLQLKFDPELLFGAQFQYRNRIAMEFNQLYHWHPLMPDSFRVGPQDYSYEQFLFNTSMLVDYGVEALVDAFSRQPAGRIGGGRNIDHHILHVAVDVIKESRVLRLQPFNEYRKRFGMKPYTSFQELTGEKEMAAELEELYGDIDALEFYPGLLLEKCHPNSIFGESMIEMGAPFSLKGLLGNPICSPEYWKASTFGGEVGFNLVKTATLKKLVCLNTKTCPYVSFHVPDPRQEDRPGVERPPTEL
The experiment in a line: In vitro COX-1 colorimetric enzyme assay (Cayman kit, TMPD at 590 nm). In kind it is biochemical. On the procedure:
(§1) The assay procedure was followed as per the manufacturer’s protocol with slight modifications. The screening kits consolidate ovine COX-1 as well as human recombinant COX-2 compounds to screen isozyme-specific inhibitors. The test investigates the peroxidase activity by projecting the presence of oxidized TMPD (N, N, N′, N′- tetramethyl-p-phenylenediamine) at 590 nm. The COX-2 selectivity was measured as a ratio of IC50 for COX-1 divided by COX-2 [15].

The next data set deals with T2, human recombinant COX-2 (Homo sapiens, UniProt P35354).
T2 construct: purchased Cayman Chemicals, Ann Arbor, MI, USA
T2 sequence (P35354 18-604): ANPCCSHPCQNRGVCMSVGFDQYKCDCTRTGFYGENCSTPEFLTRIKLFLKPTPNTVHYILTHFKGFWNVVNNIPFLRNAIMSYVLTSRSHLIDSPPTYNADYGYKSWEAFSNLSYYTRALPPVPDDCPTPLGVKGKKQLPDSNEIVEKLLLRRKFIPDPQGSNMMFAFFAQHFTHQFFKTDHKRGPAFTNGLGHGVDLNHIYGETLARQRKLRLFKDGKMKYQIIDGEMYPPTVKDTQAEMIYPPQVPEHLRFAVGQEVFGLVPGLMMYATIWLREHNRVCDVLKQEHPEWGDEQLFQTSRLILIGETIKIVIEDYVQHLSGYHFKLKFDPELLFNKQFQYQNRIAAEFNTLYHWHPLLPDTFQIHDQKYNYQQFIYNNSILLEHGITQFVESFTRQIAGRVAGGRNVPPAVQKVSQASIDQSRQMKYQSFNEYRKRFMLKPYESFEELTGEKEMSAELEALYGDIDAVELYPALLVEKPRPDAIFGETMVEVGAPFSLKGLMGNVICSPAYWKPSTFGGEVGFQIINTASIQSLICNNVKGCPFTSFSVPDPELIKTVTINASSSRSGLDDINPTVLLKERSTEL
The experiment in a line: In vitro COX-2 colorimetric enzyme assay (Cayman kit, TMPD at 590 nm). It counts as biochemical. To be noted: for Selectivity (ratio of IC50 for COX-1 to COX-2): IC50 COX-1 divided by IC50 COX-2; for IC50: human recombinant COX-2; for COX-2 inhibition, in words: compared with indomethacin / other derivatives; for COX-2 selectivity, in words: selectivity ratio compared with indomethacin / other derivatives. On the procedure:
as §1

The subject of data set [1] is carrageenan-induced paw oedema. In words: Carrageenan-induced rat paw oedema. In kind it is in vivo, Wistar rats. Conditions: 2.57 mg/kg oral, 1 h before carrageenan; paw volume after 5 h. On the procedure:
All the procedures performed followed the Committee for Control and Supervision of Experiments on Animals (CPCSEA), the Ministry of Social Justice and Empowerment, the Government of India. The in vivo study was performed using Wistar rats (250-300 gm body weight) obtained from the Torrent Research Center, […]. Animals were divided into five groups containing six rats per group and housed under controlled conditions. The temperature and relative humidity of the animal house were kept at 23 ± 2 °C and 55 ± 5%, respectively. Animals were kept under a photo schedule of 12 h light and 12 h dark cycle and given access to food and purified water ad libitum. […] A freshly prepared carrageenan solution (1%w/v, 0.1 mL) was injected into the plantar side of each rat's right hind paw. […] The paw volume was measured using a plethysmometer using the mercury displacement method after 5 h of carrageenan injection.
For orientation: Carrageenan injected into the paw causes an acute inflammation.

For a further data set, the system named is gastric mucosa. The experiment in a line: Effect on the gastric mucosa (ulcerogenic effect). Conditions: 2.57 mg/kg oral, six hours after administration, rats. In kind it is in vivo, Wistar rats. Here is the method: GI side effects were assessed six hours after an oral administration in each group. Animals were euthanized, and stomachs were expelled, opened along the more prominent bend and washed with saline to remove gastric contents. Each stomach was analysed by another researcher, blinded to the treatment groups. The stomach was visually examined for the presence of any lesions, hyperaemia (red tinge) or haemorrhagic spots for evaluation of the presence of ulceration.

Where “and” joins values, the source holds several entries; their conditions need not be identical. Equal values may be shown once. Entries after “also recorded” stand apart in the source; their conditions may differ.

Broadly, the IC50 is the point on the concentration scale where inhibition reaches its midpoint.

Take `COc1ccc2c(c1)c(CC(=O)Nc1ccccc1Cl)c(C)n2C(=O)c1ccc(Cl)cc1` [Compound 3b, 2-(1-(4-chlorobenzoyl),5-methoxy-2-methyl-1H-indol-3-yl)-N-(2-chlorophenyl)acetamide]: the IC50 against ovine COX-1 amounted to 4.61 ± 0.31 µM. At human recombinant COX-2, the “Selectivity (ratio of IC50 for COX-1 to COX-2)” value is recorded as 1.41 and the IC50 amounted to 3280 ± 160 nM.
Take `COc1ccc2c(c1)c(CC(=O)Nc1ccc(F)cc1)c(C)n2C(=O)c1ccc(Cl)cc1` [Compound 3d, 2-(1-(4-chlorobenzoyl)-5-methoxy-2-methyl-1H-indol-3-yl)-N-(4-fluorophenyl)acetamide]: on ovine COX-1, it took 5 ± 0.47 µM to reach half-maximal inhibition (IC50).
Turning to `COc1ccc2c(c1)c(CC(=O)Nc1ccc([N+](=O)[O-])cc1)c(C)n2C(=O)c1ccc(Cl)cc1` [Compound 3e, 2-(1-(4-chlorobenzoyl)-5-methoxy-2-methyl-1H-indol-3-yl)-N-(4-nitrophenyl)acetamide], the “Anti-inflammatory activity (inhibition of paw oedema), in words” value in data set [1] was “comparable anti-inflammatory activity with the standard”. Moreover, in the data set on gastric mucosa, the “Ulcerogenic effect (visual examination of stomach), in words” value was “devoid of GI side effects such as ulceration”. The same compound came in with an IC50 on ovine COX-1 of 1.15 ± 0.3 µM. On human recombinant COX-2, the “Selectivity (ratio of IC50 for COX-1 to COX-2)” value worked out at 3.32; the “COX-2 inhibition, in words” value was “comparable COX-2 inhibition potential to indomethacin; also recorded: particularly significant activity against the COX-2 enzyme”; the IC50 is 344 nM and 340 nM; the “COX-2 selectivity, in words” value is given as “highest selectivity ratio; also recorded: excellent selectivity ratio as compared with the standard”.
For `COc1ccc2c(c1)c(CC(=O)O)c(C)n2C(=O)c1ccc(Cl)cc1` [Indomethacin, 2-(1-(4-chlorobenzoyl)-5-methoxy-2-methyl-1-H-indol-3-yl)acetic acid], in data set [1], the “Anti-inflammatory activity (inhibition of paw oedema), in words” value is “significant inhibition of oedema formation”. In addition, the “Ulcerogenic effect (visual examination of stomach), in words” value in the data set on gastric mucosa is “small lesions and red colouration; also recorded: small lesions and ulcers”.
As to `COc1ccc2c(c1)c(CC(=O)NCc1ccccc1)c(C)n2C(=O)c1ccc(Cl)cc1` [Compound 3h, N-benzyl-2-(1-(4-chlorobenzoyl)-5-methoxy-2-methyl-1H-indol-3-yl)acetamide], inhibition at ovine COX-1 was half-maximal at 4.99 ± 0.11 µM (IC50). At human recombinant COX-2, the “Selectivity (ratio of IC50 for COX-1 to COX-2)” value is 1.06; the “COX-2 inhibition, in words” value is reported as “low inhibitory action against COX-2”; the IC50 worked out at 4730 ± 150 nM.
Take `COc1ccc2c(c1)c(CC(=O)Nc1ccc(F)c(Cl)c1)c(C)n2C(=O)c1ccc(Cl)cc1` [Compound 3c, N-(3-chloro-4-fluorophenyl)-2-(1-(4-chlorobenzoyl)-5-methoxy-2-methyl-1H-indol-3-yl)acetamide]: the “Anti-inflammatory activity (inhibition of paw oedema), in words” value in data set [1] was “comparable anti-inflammatory activity with the standard”. For the same compound, at ovine COX-1, half-maximal inhibition (IC50) required 1.06 ± 0.1 µM. Besides, at human recombinant COX-2, the “Selectivity (ratio of IC50 for COX-1 to COX-2)” value is 0.76; the IC50 turned out to be 1390 ± 320 nM; the “COX-2 selectivity, in words” value is “less than indomethacin”.
`COc1ccc2c(c1)c(CC(=O)Nc1cccc(C)c1)c(C)n2C(=O)c1ccc(Cl)cc1` [Compound 3i, 2-(1-(4-chlorobenzoyl)-5-methoxy-2-methyl-1H-indol-3-yl)-N-m-tolylacetamide] displayed an IC50 on ovine COX-1 of 4.71 ± 0.22 µM. For the same compound, on human recombinant COX-2, the “Selectivity (ratio of IC50 for COX-1 to COX-2)” value was 1.12; the “COX-2 inhibition, in words” value was “low inhibitory action against COX-2”; the IC50 turned out to be 4220 ± 230 nM.
In turn, `COc1ccc2c(c1)c(CC(=O)Nc1c(Cl)cccc1Cl)c(C)n2C(=O)c1ccc(Cl)cc1` [Compound 3g, 2-(1-(4-chlorobenzoyl)-5-methoxy-2-methyl-1H-indol-3-yl)-N-(2,6-dichlorophenyl)acetamide] returned an IC50 against ovine COX-1 of 4.14 ± 0.25 µM. Besides, at human recombinant COX-2, the “Selectivity (ratio of IC50 for COX-1 to COX-2)” value is reported as 1.42 and the IC50 was 2910 ± 380 nM.
Taken in the same sequence, the figures for `COc1ccc2c(c1)c(CC(=O)Nc1ccccc1)c(C)n2C(=O)c1ccc(Cl)cc1` [Compound 3a, 2-(1(4-chlorobenzoyl),5-methoxy-2-methyl-1H-indol-3-yl)-N-phenylacetamide] were 6.04 ± 0.14 µM, 2.04 and 2970 ± 110 nM.
